Experimental data from ChEMBL document CHEMBL5550206, “Identification of 6-Fluorine-Substituted Coumarin Analogues as POLRMT Inhibitors with High Potency and Safety for Treatment of Pancreatic Cancer” (J Med Chem, 2024).
Activity calls are given as the source filed them. The calls are words filed in the database; no cut-off is given here.

Legend:
MIA PaCa-2 [1] = experiment: Antiproliferative activity against human MIA PaCa-2 cells assessed as cell viability measured after 168 hrs incubation by SRB assay; assay type: functional, cell-based; details: MIA PaCa-2, 168 h
MIA PaCa-2 [2] = experiment: Inhibition of RNA pol I in human MIA PaCa-2 cells assessed as effect on 18S RNA level at 0.1 to 1 uM measured after 12 hrs by RT-qPCR analysis; assay type: cell-based; details: dose 0.1-1 µM
[3] = target: DNA-directed RNA polymerase, mitochondrial (Homo sapiens) (UniProt O00411); experiment: Inhibition of human POLRMT in human MIA PaCa-2 cells assessed as inhibition of mitochondria coded ubiquinone oxidoreductase core subunit 1 (ND I) transcript level measured after 12 hrs by RT-qPCR analysis; details: dose 0.001-5 µM
Sequence of DNA-directed RNA polymerase, mitochondrial (Homo sapiens) (O00411 whole entry): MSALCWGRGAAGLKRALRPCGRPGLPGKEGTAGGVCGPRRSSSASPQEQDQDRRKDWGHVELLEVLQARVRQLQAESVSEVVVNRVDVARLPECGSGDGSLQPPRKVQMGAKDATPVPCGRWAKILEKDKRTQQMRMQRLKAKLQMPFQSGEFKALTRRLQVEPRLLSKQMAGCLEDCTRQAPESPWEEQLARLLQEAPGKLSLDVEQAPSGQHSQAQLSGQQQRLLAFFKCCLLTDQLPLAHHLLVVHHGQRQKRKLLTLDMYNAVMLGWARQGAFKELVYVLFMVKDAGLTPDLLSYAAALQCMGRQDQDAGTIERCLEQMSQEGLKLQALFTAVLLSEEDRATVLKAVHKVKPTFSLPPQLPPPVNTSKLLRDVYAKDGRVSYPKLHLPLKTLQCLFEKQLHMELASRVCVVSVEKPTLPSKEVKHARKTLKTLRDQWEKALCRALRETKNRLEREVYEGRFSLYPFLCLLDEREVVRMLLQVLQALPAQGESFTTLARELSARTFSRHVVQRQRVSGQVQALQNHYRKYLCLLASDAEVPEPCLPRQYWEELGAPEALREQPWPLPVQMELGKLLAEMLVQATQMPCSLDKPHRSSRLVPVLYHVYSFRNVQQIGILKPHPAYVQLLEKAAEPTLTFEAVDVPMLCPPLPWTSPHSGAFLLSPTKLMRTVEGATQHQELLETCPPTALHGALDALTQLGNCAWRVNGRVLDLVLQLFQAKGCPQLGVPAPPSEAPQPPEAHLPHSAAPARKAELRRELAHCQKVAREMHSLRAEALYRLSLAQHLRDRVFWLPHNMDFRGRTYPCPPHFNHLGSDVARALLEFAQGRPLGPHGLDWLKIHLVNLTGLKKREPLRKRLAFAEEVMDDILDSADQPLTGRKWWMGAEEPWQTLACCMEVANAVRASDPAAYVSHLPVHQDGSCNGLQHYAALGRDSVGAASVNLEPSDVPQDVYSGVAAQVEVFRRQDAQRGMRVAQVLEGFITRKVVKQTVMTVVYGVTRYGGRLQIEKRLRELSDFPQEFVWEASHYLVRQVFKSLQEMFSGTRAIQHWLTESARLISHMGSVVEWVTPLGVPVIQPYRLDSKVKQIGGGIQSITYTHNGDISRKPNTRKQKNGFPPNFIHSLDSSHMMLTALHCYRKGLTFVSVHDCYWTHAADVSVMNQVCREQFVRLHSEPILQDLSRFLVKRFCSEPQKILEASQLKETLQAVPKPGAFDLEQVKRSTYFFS

MIA PaCa-2 [4] = experiment: Inhibition of colony formation in human MIA PaCa-2 cells at 5 to 200 nM incubated for 14 days by crystal violet staining based assay; assay type: functional, cell-based; details: dose 5-200 nM, time 14.0 day
MIA PaCa-2 [5] = experiment: Inhibition of colony formation in human MIA PaCa-2 cells assessed as decrease in size of colony at 5 nM incubated for 14 days by crystal violet staining based assay; assay type: functional, cell-based; details: time 14.0 day
MIA PaCa-2 [6] = experiment: Inhibition of mitochondria coded ubiquinone oxidoreductase core subunit 1 (ND I) transcript level in human MIA PaCa-2 cells measured after 12 to 36 hrs of compound removal by RT-qPCR analysis; assay type: functional; details: time 12-36 hrs
MIA PaCa-2 [7] = experiment: Induction of cell arrest in human MIA PaCa-2 cells assessed as accumulation of cells at G1 phase at 25 nM measured after 96 hrs by PI staining based flow cytometry (reference value: 64%); assay type: functional
MIA PaCa-2 [8] = experiment: Induction of cell arrest in human MIA PaCa-2 cells assessed as accumulation of cells at G1 phase at 100 nM measured after 96 hrs by PI staining based flow cytometry (reference value: 64%); assay type: functional
MIA PaCa-2 [9] = experiment: Induction of cell arrest in human MIA PaCa-2 cells assessed as accumulation of cells at G1 phase at 200 nM measured after 96 hrs by PI staining based flow cytometry (reference value: 64%); assay type: functional
MIA PaCa-2 [10] = experiment: Induction of cell arrest in human MIA PaCa-2 cells assessed as accumulation of cells at G2 phase at 200 nM measured after 96 hrs by PI staining based flow cytometry (reference value: 11.2%); assay type: functional
MIA PaCa-2 [11] = experiment: Induction of cell arrest in human MIA PaCa-2 cells assessed as accumulation of cells at G2 phase at 500 nM measured after 96 hrs by PI staining based flow cytometry (reference value: 11.2%); assay type: functional
MIA PaCa-2 [12] = experiment: Induction of cell arrest in human MIA PaCa-2 cells assessed as viable cells at 25 nM measured after 4 days by Annexin V-FITC and propidium iodide (PI) staining based assay (reference value: 94.9%); assay type: functional; details: MIA PaCa-2, 96 h, time 4 day, read-out: Activity
MIA PaCa-2 [13] = experiment: Induction of cell arrest in human MIA PaCa-2 cells assessed as early apoptotic cells at 25 nM measured after 4 days by Annexin V-FITC and propidium iodide (PI) staining based assay (reference value: 1.07%); assay type: functional; details: time 4 day
MIA PaCa-2 [14] = experiment: Induction of cell arrest in human MIA PaCa-2 cells assessed as late apoptotic cells at 25 nM measured after 4 days by Annexin V-FITC and propidium iodide (PI) staining based assay (reference value: 3.23%); assay type: functional; details: time 4 day
MIA PaCa-2 [15] = experiment: Induction of cell arrest in human MIA PaCa-2 cells assessed as viable cells at 50 nM measured after 4 days by Annexin V-FITC and propidium iodide (PI) staining based assay (reference value: 94.9%); assay type: functional; details: MIA PaCa-2, 96 h, time 4 day, read-out: Activity
MIA PaCa-2 [16] = experiment: Induction of cell arrest in human MIA PaCa-2 cells assessed as early apoptotic cells at 50 nM measured after 4 days by Annexin V-FITC and propidium iodide (PI) staining based assay (reference value: 1.07%); assay type: functional; details: time 4 day
MIA PaCa-2 [17] = experiment: Induction of cell arrest in human MIA PaCa-2 cells assessed as late apoptotic cells at 50 nM measured after 4 days by Annexin V-FITC and propidium iodide (PI) staining based assay (reference value: 3.23%); assay type: functional; details: time 4 day
MIA PaCa-2 [18] = experiment: Induction of cell arrest in human MIA PaCa-2 cells assessed as late apoptotic cells at 100 nM measured after 4 days by Annexin V-FITC and propidium iodide (PI) staining based assay (reference value: 3.23%); assay type: functional; details: time 4 day
MIA PaCa-2 [19] = experiment: Induction of cell arrest in human MIA PaCa-2 cells assessed as necrotic cells at 100 nM measured after 4 days by Annexin V-FITC and propidium iodide (PI) staining based assay (reference value: 0.82%); assay type: functional; details: time 4 day
MIA PaCa-2 [20] = experiment: Induction of cell arrest in human MIA PaCa-2 cells assessed as necrotic cells at 500 nM measured after 4 days by Annexin V-FITC and propidium iodide (PI) staining based assay (reference value: 0.82%); assay type: functional; details: time 4 day
MIA PaCa-2 [21] = experiment: Reduction in basal oxygen consumption rate (OCR) in human MIA PaCa-2 cells incubated for 168 hrs; assay type: functional, cell-based; details: dose 1-200 nM
MIA PaCa-2 [22] = experiment: Reduction in number of mitochondria in human MIA PaCa-2 cells measured after 96 hrs by Mito-Tracker Green and DAPI staining based assay; assay type: functional, cell-based; details: dose 10-1000 nM
[23] = target: DNA-directed RNA polymerase, mitochondrial (Homo sapiens) (UniProt O00411); experiment: Thermal stabilization of human POLRMT in human MIA PaCa-2 cells assessed as melting temperature at 100 uM measured after 30 mins incubation by Wester blot analysis (reference value: 42 degreeC); assay type: cell-based
PANC-1 = experiment: Antiproliferative activity against human PANC-1 cells assessed as cell viability measured after 168 hrs incubation by SRB assay; assay type: functional, cell-based; details: PANC-1, 168 h
MIA PaCa-2 [24] = experiment: In vivo antitumor activity against human MIA PaCa-2 cells xenografted in BALB/c mouse assessed as reduction in tumor weight at 25 mg/kg, iv once daily for 25 consecutive day after 2 weeks of cells injection relative to control; assay type: functional; details: MIA PaCa-2, 600 h, time 25 day
MIA PaCa-2 [25] = experiment: In vivo antitumor activity against human MIA PaCa-2 cells xenografted in BALB/c mouse assessed as reduction in tumor weight at 100 mg/kg, iv once daily for 25 consecutive day after 2 weeks of cells injection relative to control; assay type: functional; details: MIA PaCa-2, 600 h, time 25 day
MIA PaCa-2 [26] = experiment: Induction of apoptosis in human MIA PaCa-2 cells xenografted in BALB/c mouse at 25 to 100 mg/kg, iv once daily for 25 consecutive day after 2 weeks of cells injection by TUNEL staining based analysis; assay type: functional, organism-based; details: dose 25-100 mg/kg
[27] = Toxicity in BALB/c mouse xenografted with human MIA PaCa-2 cells assessed as pathological change in liver at 25 to 100 mg/kg, iv once daily for 25 consecutive day after 2 weeks of cells injection by H and E staining based optical microscopic analysis; assay type: organism-based; details: in vivo, 336 h, dose 25-100 mg/kg
[28] = Toxicity in BALB/c mouse xenografted with human MIA PaCa-2 cells assessed as pathological change in lung at 25 to 100 mg/kg, iv once daily for 25 consecutive day after 2 weeks of cells injection by H and E staining based optical microscopic analysis; assay type: organism-based; details: in vivo, 336 h, dose 25-100 mg/kg
[29] = Toxicity in BALB/c mouse xenografted with human MIA PaCa-2 cells assessed as pathological change in kidney at 25 to 100 mg/kg, iv once daily for 25 consecutive day after 2 weeks of cells injection by H and E staining based optical microscopic analysis; assay type: organism-based; details: in vivo, 336 h, dose 25-100 mg/kg

- IC50 (MIA PaCa-2 [1]): 5 nM
- inhibition [3]: Dose-Dependent Effect
- Tm [23]: 57 °C
- IC50 (PANC-1): 198 nM
SMILES: CCN(CC)C(=O)[C@@H](C)Oc1cc2oc(=O)cc(-c3ccccc3C)c2cc1F
- inhibition (MIA PaCa-2 [2]): inactive
- inhibition (MIA PaCa-2 [4]): Active
- inhibition (MIA PaCa-2 [5]): Active
- inhibition (MIA PaCa-2 [6]): Active
- Activity (MIA PaCa-2 [7]): 65.5%
- Activity (MIA PaCa-2 [8]): 63.6%
- Activity (MIA PaCa-2 [9]): 62.4%
- Activity (MIA PaCa-2 [10]): 13%
- Activity (MIA PaCa-2 [11]): 11.6%
- viability at 0.025 µM (MIA PaCa-2 [12]): 94.5%
- Activity (MIA PaCa-2 [13]): 1.4%
- Activity (MIA PaCa-2 [14]): 3.32%
- viability at 0.05 µM (MIA PaCa-2 [15]): 94.1%
- Activity (MIA PaCa-2 [16]): 1.08%
- Activity (MIA PaCa-2 [17]): 4.02%
- Activity (MIA PaCa-2 [18]): 3.61%
- Activity (MIA PaCa-2 [19]): 0.94%
- Activity (MIA PaCa-2 [20]): 1.28%
- Activity (MIA PaCa-2 [21]): Dose-Dependent Effect
- Activity (MIA PaCa-2 [22]): Dose-Dependent Effect
- inhibition in vivo at 25 mg/kg (MIA PaCa-2 [24]): 45.2%
- inhibition in vivo at 100 mg/kg (MIA PaCa-2 [25]): 64.5%
- Activity (MIA PaCa-2 [26]): inactive
- Activity [27]: Non-Toxic
- Activity [28]: Non-Toxic
- Activity [29]: Non-Toxic
